Values quoted from earlier work in patent EP4631497A1, “LIPOSOMAL COMPOSITION FOR TOPICAL ADMINISTRATION” (priority 2024, dated 2025).
Where two headings read alike, the source gives them in different places.

| SMILES | Wasserlöslichkeit (water) | Wasserlöslichkeit (bei 25°C) |
| --- | --- | --- |
| C[C@@H]1O[C@@H](O[C@H]2[C@H](Oc3cc(O)c4c(c3)O[C@H](c3ccc(O)cc3)CC4=O)O[C@H](CO)[C@@H](O)[C@@H]2O)[C@H](O)[C@H](O)[C@H]1O [Naringin] | < 1 mg/mL |  |
| O=C(CCc1ccc(O)cc1)c1c(O)cc(O)cc1O [Phloretin] |  | < 0,1 mg/ml |
| Oc1ccc(C=Cc2cc(O)cc(O)c2)cc1 [Resveratrol] |  | < 0,1 mg/ml |
| O=C1c2c(O)cc(O)cc2O[C@H](c2ccc(O)c(O)c2)[C@H]1O [Taxifolin] |  | < 1 mg/mL |
